Laboratory results as given in the kinase profiling compilation of Christmann-Franck et al. (2016).

Assays:
Assay in all cases: KINOMEscan competition binding
Details in all cases: compound 10.0 µM
[1] = biological target: STK25 (human) (UniProt O00506)
[2] = biological target: EPHA2 (human) (UniProt P29317)
[3] = biological target: EPHA8 (human) (UniProt P29322)
[4] = biological target: IKBKE (human) (UniProt Q14164)
[5] = biological target: CDK5 (human) (UniProt Q00535)
[6] = biological target: PLK4 (human) (UniProt O00444)
[7] = biological target: CDK14 (human) (UniProt O94921)
[8] = biological target: RIPK1 (human) (UniProt Q13546)
[9] = biological target: SRMS (human) (UniProt Q9H3Y6)
SRMS (human), sequence (Q9H3Y6 whole entry, looked up): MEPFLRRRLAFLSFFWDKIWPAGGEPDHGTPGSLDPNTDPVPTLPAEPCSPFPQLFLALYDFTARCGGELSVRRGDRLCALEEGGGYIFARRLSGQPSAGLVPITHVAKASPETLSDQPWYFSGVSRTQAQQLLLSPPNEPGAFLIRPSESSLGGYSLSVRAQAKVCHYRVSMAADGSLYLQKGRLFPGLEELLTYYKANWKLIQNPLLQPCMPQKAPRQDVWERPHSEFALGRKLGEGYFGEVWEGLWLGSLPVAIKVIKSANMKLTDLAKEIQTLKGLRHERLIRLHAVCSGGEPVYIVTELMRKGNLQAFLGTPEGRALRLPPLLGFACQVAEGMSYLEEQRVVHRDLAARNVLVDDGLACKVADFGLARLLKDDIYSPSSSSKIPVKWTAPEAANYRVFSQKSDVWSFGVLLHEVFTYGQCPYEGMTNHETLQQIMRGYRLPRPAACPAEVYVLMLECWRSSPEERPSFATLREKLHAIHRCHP

[10] = biological target: AXL (human) (UniProt P30530)
[11] = biological target: MYO3A (human) (UniProt Q8NEV4)
[12] = biological target: TNIK (human) (UniProt Q9UKE5)
TNIK (human), sequence (Q9UKE5 whole entry, looked up): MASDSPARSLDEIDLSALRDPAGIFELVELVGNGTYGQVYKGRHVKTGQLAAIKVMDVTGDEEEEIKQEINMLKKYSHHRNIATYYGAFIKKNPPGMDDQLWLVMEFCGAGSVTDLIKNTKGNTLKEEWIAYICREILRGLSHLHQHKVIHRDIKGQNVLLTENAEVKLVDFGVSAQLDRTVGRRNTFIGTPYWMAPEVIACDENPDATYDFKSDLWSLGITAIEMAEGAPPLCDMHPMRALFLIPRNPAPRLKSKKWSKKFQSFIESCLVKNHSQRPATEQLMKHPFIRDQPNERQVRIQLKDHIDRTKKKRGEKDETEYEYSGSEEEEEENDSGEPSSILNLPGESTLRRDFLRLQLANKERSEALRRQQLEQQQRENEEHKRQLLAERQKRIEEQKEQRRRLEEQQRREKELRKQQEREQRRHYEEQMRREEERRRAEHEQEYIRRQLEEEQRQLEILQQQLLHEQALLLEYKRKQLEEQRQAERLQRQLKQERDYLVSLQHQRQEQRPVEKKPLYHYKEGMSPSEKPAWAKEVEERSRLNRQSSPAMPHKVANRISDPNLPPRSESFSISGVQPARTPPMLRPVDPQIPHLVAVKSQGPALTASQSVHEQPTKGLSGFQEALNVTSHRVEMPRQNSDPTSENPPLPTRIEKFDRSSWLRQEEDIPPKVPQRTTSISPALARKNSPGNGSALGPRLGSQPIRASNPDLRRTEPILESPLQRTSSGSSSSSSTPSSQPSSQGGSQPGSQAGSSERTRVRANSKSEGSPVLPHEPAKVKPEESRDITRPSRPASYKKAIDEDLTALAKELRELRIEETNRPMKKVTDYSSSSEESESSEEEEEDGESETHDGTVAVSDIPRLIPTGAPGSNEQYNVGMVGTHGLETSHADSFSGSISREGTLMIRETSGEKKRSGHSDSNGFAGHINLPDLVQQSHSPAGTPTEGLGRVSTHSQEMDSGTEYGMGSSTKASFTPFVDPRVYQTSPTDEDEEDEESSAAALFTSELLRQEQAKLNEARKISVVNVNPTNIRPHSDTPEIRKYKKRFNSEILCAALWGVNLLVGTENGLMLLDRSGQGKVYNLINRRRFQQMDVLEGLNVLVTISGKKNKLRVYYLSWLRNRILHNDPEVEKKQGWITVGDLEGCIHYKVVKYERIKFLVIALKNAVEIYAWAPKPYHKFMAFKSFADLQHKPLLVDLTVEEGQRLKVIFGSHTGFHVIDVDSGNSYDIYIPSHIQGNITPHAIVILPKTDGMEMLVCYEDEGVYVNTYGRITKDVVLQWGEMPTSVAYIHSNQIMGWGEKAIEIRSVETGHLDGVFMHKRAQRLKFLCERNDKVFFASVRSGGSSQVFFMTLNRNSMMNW

[13] = biological target: PRKD1 (human) (UniProt Q15139)
[14] = biological target: RIPK2 (human) (UniProt O43353)
[15] = biological target: PDPK1 (human) (UniProt O15530)
[16] = biological target: MAPKAPK5 (human) (UniProt Q8IW41)
[17] = biological target: TEK (human) (UniProt Q02763)
TEK (human), sequence (Q02763 whole entry, looked up): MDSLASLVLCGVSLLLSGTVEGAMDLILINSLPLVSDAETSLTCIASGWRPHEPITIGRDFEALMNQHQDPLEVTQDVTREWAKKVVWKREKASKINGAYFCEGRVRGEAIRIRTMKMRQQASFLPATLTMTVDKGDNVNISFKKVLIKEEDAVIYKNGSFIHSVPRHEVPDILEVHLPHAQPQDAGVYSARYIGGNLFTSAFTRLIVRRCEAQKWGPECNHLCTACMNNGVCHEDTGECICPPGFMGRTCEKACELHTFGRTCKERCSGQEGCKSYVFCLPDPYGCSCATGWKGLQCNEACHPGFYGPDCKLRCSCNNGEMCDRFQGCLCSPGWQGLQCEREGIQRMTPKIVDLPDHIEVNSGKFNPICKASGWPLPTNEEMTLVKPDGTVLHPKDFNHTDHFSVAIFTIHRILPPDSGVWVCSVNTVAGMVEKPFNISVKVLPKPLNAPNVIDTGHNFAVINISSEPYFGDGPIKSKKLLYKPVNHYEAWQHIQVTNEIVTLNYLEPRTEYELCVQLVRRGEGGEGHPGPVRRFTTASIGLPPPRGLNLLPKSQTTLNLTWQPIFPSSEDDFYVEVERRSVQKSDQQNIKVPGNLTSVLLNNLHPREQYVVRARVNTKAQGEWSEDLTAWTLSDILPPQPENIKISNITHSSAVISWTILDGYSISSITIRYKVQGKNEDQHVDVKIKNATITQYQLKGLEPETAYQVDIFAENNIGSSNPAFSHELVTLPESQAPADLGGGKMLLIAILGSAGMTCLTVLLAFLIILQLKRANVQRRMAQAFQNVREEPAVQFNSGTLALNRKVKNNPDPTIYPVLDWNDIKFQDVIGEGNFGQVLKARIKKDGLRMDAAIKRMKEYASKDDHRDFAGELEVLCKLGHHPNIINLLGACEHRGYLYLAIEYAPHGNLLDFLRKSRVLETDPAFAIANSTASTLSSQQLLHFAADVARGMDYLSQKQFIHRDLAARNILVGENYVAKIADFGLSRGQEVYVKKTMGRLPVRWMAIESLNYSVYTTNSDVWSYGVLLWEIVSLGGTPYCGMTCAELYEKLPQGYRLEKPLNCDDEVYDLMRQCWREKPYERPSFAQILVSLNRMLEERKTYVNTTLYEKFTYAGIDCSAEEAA

[18] = biological target: NUAK2 (human) (UniProt Q9H093)
NUAK2 (human), sequence (Q9H093 whole entry, looked up): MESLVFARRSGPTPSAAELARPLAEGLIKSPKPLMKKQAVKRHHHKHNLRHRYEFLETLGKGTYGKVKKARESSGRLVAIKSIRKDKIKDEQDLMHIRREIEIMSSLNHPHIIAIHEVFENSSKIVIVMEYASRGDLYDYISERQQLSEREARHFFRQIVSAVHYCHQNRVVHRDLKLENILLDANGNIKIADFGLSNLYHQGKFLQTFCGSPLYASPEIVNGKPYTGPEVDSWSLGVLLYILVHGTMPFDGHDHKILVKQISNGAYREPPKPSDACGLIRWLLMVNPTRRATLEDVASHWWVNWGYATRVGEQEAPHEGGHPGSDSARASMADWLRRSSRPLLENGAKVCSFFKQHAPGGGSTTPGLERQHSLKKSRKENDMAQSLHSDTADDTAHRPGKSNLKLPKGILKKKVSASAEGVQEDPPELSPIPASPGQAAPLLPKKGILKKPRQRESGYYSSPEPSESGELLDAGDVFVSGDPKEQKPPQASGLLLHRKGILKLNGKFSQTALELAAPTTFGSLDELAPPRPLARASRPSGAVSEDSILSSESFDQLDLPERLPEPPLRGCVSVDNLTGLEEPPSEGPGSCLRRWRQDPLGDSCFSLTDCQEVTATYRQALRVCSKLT

[19] = biological target: BRSK2 (human) (UniProt Q8IWQ3)
[20] = biological target: LYN (human) (UniProt P07948)
LYN (human), sequence (P07948 whole entry, looked up): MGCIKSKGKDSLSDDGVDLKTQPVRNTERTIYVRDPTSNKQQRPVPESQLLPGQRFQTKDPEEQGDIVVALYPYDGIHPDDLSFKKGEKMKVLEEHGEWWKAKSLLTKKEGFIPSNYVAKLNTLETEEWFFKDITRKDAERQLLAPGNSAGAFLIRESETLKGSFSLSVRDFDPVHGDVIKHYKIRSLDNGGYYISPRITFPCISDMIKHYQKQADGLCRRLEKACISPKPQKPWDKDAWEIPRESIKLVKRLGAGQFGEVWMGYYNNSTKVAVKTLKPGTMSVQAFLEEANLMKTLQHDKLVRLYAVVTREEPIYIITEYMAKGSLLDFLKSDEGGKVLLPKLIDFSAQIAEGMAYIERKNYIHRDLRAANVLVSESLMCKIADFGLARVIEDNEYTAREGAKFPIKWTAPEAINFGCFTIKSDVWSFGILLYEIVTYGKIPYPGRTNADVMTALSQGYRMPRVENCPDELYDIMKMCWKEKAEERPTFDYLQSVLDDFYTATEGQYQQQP

[21] = biological target: MAP3K3 (human) (UniProt Q99759)
[22] = biological target: MARK2 (human) (UniProt Q7KZI7)
[23] = biological target: RPS6KA2 KD2 (human) (UniProt Q15349)
[24] = biological target: NEK5 (human) (UniProt Q6P3R8)
[25] = biological target: PAK3 (human) (UniProt O75914)
[26] = biological target: MAP4K5 (human) (UniProt Q9Y4K4)
[27] = biological target: CLK2 (human) (UniProt P49760)
[28] = biological target: PDGFRB (human) (UniProt P09619)
[29] = biological target: PIM2 (human) (UniProt Q9P1W9)
[30] = biological target: MAPK12 (human) (UniProt P53778)
[31] = biological target: MAP2K2 (human) (UniProt P36507)
[32] = biological target: RPS6KA1 KD2 (human) (UniProt Q15418)
[33] = biological target: IKBKB (human) (UniProt O14920)
[34] = biological target: LCK (human) (UniProt P06239)
[35] = biological target: SLK (human) (UniProt Q9H2G2)
[36] = biological target: MAPK3 (human) (UniProt P27361)
[37] = biological target: TNNI3K (human) (UniProt Q59H18)
[38] = biological target: CSNK1E (human) (UniProt P49674)
[39] = biological target: CDK9 (human) (UniProt P50750)
[40] = biological target: JAK1 JH1 catalytic (human) (UniProt P23458)

IKBKE (human), sequence (Q14164 whole entry, looked up): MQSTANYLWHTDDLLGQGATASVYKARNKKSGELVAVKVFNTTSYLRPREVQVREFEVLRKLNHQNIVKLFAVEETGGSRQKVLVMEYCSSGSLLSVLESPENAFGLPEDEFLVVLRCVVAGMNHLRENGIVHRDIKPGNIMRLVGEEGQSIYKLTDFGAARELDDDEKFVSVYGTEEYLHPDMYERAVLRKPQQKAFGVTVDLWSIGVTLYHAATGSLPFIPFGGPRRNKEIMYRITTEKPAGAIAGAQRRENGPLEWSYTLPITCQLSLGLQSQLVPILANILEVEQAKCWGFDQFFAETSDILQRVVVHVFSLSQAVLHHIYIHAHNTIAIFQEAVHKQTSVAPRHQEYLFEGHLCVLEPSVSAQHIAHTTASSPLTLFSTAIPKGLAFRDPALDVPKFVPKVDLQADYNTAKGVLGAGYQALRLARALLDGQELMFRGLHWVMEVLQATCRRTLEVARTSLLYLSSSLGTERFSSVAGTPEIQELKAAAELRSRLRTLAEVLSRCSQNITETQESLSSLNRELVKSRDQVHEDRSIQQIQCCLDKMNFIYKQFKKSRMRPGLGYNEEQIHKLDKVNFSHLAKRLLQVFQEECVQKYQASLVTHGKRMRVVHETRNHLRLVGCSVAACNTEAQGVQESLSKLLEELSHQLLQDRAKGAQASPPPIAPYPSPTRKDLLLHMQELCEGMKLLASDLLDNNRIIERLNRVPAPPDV

Compound | kinase still bound, per cent of control [1] | kinase still bound, per cent of control [2] | kinase still bound, per cent of control [3] | kinase still bound, per cent of control [4] | kinase still bound, per cent of control [5] | kinase still bound, per cent of control [6] | kinase still bound, per cent of control [7] | kinase still bound, per cent of control [8] | kinase still bound, per cent of control [9] | kinase still bound, per cent of control [10] | kinase still bound, per cent of control [11] | kinase still bound, per cent of control [12] | kinase still bound, per cent of control [13] | kinase still bound, per cent of control [14] | kinase still bound, per cent of control [15] | kinase still bound, per cent of control [16] | kinase still bound, per cent of control [17] | kinase still bound, per cent of control [18] | kinase still bound, per cent of control [19] | kinase still bound, per cent of control [20] | also measured
O=C1Nc2ccc(I)cc2/C1=C/c1cc(Br)c(O)c(Br)c1 | 100% | 83% | 100% | 86% | 83% | 26% | 95% | 85% | 65% | 100% | 2.5% | 2.7% | 100% | 38% | 100% | 100% | 100% | 75% | 100% | 86% | kinase still bound, per cent of control [21]: 92%; kinase still bound, per cent of control [22]: 44%; kinase still bound, per cent of control [23]: 45%; kinase still bound, per cent of control [24]: 87%; kinase still bound, per cent of control [25]: 100%; kinase still bound, per cent of control [26]: 100%; kinase still bound, per cent of control [27]: 15%; kinase still bound, per cent of control [28]: 5.5%; kinase still bound, per cent of control [29]: 2.1%; kinase still bound, per cent of control [30]: 74%; kinase still bound, per cent of control [31]: 74%; kinase still bound, per cent of control [32]: 12%; kinase still bound, per cent of control [33]: 100%; kinase still bound, per cent of control [34]: 38%; kinase still bound, per cent of control [35]: 100%; kinase still bound, per cent of control [36]: 100%; kinase still bound, per cent of control [37]: 76%; kinase still bound, per cent of control [38]: 84%; kinase still bound, per cent of control [39]: 93%; kinase still bound, per cent of control [40]: 100%
CN(C)C/C=C/C(=O)Nc1cccc(Nc2ncc3c(n2)N(C)c2ccccc2C(=O)N3C)c1 | 66% | 82% | 90% | 100% | 100% | 0% | 100% | 28% | 57% | 7% | 100% | 29% | 15% | 18% | 86% | 85% | 35% | 2.6% | 4.2% | 52% | kinase still bound, per cent of control [21]: 0.1%; kinase still bound, per cent of control [22]: 21%; kinase still bound, per cent of control [23]: 21%; kinase still bound, per cent of control [24]: 58%; kinase still bound, per cent of control [25]: 14%; kinase still bound, per cent of control [26]: 75%; kinase still bound, per cent of control [27]: 41%; kinase still bound, per cent of control [28]: 38%; kinase still bound, per cent of control [29]: 100%; kinase still bound, per cent of control [30]: 83%; kinase still bound, per cent of control [31]: 78%; kinase still bound, per cent of control [32]: 39%; kinase still bound, per cent of control [33]: 100%; kinase still bound, per cent of control [34]: 1.2%; kinase still bound, per cent of control [35]: 7.3%; kinase still bound, per cent of control [36]: 100%; kinase still bound, per cent of control [37]: 28%; kinase still bound, per cent of control [38]: 75%; kinase still bound, per cent of control [39]: 100%; kinase still bound, per cent of control [40]: 2.8%
OCCCNc1cc(-c2ccnc(Nc3cccc(Cl)c3)n2)ccn1 | 100% | 100% | 100% | 100% | 100% | 100% | 100% | 100% | 100% | 100% | 100% | 100% | 100% | 100% | 100% | 100% | 100% | 100% | 100% | 100% | kinase still bound, per cent of control [21]: 100%; kinase still bound, per cent of control [22]: 100%; kinase still bound, per cent of control [23]: 100%; kinase still bound, per cent of control [24]: 100%; kinase still bound, per cent of control [25]: 100%; kinase still bound, per cent of control [26]: 100%; kinase still bound, per cent of control [27]: 0.3%; kinase still bound, per cent of control [28]: 100%; kinase still bound, per cent of control [29]: 100%; kinase still bound, per cent of control [30]: 100%; kinase still bound, per cent of control [31]: 100%; kinase still bound, per cent of control [32]: 100%; kinase still bound, per cent of control [33]: 100%; kinase still bound, per cent of control [34]: 100%; kinase still bound, per cent of control [35]: 100%; kinase still bound, per cent of control [36]: 100%; kinase still bound, per cent of control [37]: 100%; kinase still bound, per cent of control [38]: 100%; kinase still bound, per cent of control [39]: 10%; kinase still bound, per cent of control [40]: 100%
